Species on record: Rattus norvegicus
Test: DrugMatrix - Regimen: Daily Repeat
Assay type: toxicity, organism-based, Sprague-Dawley
Set-up: regimen Daily Repeat, gender Male, age 6-8 weeks
Details: in vivo; for ABSOLUTE BASOPHIL / ABSOLUTE EOSINOPHIL / ABSOLUTE LYMPHOCYTE / ABSOLUTE MONOCYTE / ABSOLUTE SEGMENTED NEUTROPHIL / BASOPHIL / EOSINOPHIL / ERYTHROCYTE COUNT / HEMATOCRIT / HEMOGLOBIN / LEUKOCYTE COUNT / LYMPHOCYTE / MEAN CORPUSCULAR HEMOGLOBIN / MEAN CORPUSCULAR HEMOGLOBIN CONCENTRATION / MEAN CORPUSCULAR VOLUME / MONOCYTE / NEUTROPHIL / NUCLEATED RED BLOOD CELLS / PLATELET COUNT: tissue Blood; for ALANINE AMINOTRANSFERASE / ALBUMIN / ALKALINE PHOSPHATASE / ASPARTATE AMINOTRANSFERASE / BLOOD UREA NITROGEN / CARBON DIOXIDE / CHLORIDE / CHOLESTEROL / CREATINE PHOSPHOKINASE / CREATININE / GLUCOSE / LACTATE DEHYDROGENASE / LIPASE / PHOSPHORUS / POTASSIUM / SODIUM / TOTAL BILIRUBIN / TOTAL PROTEIN / URIC ACID: tissue Plasma
[1] = iv, 0.02 mg/kg, 72 h, dose level Low, time 3 day, vehicle 100 % SALINE
[2] = iv, 0.02 mg/kg, 120 h, dose level Low, time 5 day, vehicle 100 % SALINE
[3] = iv, 43 mg/kg, 72 h, dose level High, time 3 day, vehicle 100 % SALINE
[4] = iv, 43 mg/kg, 120 h, dose level High, time 5 day, vehicle 100 % SALINE
[5] = po, 0 mg/kg, 72 h, route oral GAVAGE, dose level Control, time 3 day, […]

## CC(CCc1ccc(O)cc1)NCCc1ccc(O)c(O)c1 (configuration not stated) [DOBUTAMINE]
[1]
  ABSOLUTE BASOPHIL: 0 CELLS/uL
  ABSOLUTE EOSINOPHIL: 0 CELLS/uL
  ABSOLUTE LYMPHOCYTE: 16404 CELLS/uL
  ABSOLUTE MONOCYTE: 67.67 CELLS/uL
  ABSOLUTE SEGMENTED NEUTROPHIL: 1828.33 CELLS/uL
  BASOPHIL: 0%
  EOSINOPHIL: 0%
  ERYTHROCYTE COUNT: 5.5 x10E6/uL
  HEMATOCRIT: 35.6%
  HEMOGLOBIN: 13.9 G/DL
  LEUKOCYTE COUNT: 18.3 x10E3/uL
  LYMPHOCYTE: 89.67%
  MEAN CORPUSCULAR HEMOGLOBIN: 25.27 pg
  MEAN CORPUSCULAR HEMOGLOBIN CONCENTRATION: 39.03 G/DL
  MEAN CORPUSCULAR VOLUME: 64.67 fL
  MONOCYTE: 0.33%
  NEUTROPHIL: 10%
  NUCLEATED RED BLOOD CELLS: 0 /100WBC
  PLATELET COUNT: 1067.33 x10E3/uL
  ALANINE AMINOTRANSFERASE: 57.33 u/L
  ALBUMIN: 4.07 G/DL
  ALKALINE PHOSPHATASE: 391.33 u/L
  ASPARTATE AMINOTRANSFERASE: 107.33 u/L
  BLOOD UREA NITROGEN: 15.67 mg/dL
  CARBON DIOXIDE: 28 mmol/L
  CHLORIDE: 97.33 MEQ/L
  CHOLESTEROL: 78 mg/dL
  CREATINE PHOSPHOKINASE: 548.67 u/L
  CREATININE: 0.13 mg/dL
  GLUCOSE: 175.33 mg/dL
  LACTATE DEHYDROGENASE: 236 u/L
  LIPASE: 10.33 u/L
  PHOSPHORUS: 12.27 mg/dL
  POTASSIUM: 7.46 MEQ/L
  SODIUM: 141.6 MEQ/L
  TOTAL BILIRUBIN: 0.3 mg/dL
  TOTAL PROTEIN: 5.77 G/DL
  URIC ACID: 1.63 mg/dL
[2]
  ABSOLUTE BASOPHIL: 0 CELLS/uL
  ABSOLUTE EOSINOPHIL: 0 CELLS/uL
  ABSOLUTE LYMPHOCYTE: 19433.33 CELLS/uL
  ABSOLUTE MONOCYTE: 145.67 CELLS/uL
  ABSOLUTE SEGMENTED NEUTROPHIL: 1621 CELLS/uL
  BASOPHIL: 0%
  EOSINOPHIL: 0%
  ERYTHROCYTE COUNT: 5.54 x10E6/uL
  HEMATOCRIT: 35.5%
  HEMOGLOBIN: 14 G/DL
  LEUKOCYTE COUNT: 21.2 x10E3/uL
  LYMPHOCYTE: 92%
  MEAN CORPUSCULAR HEMOGLOBIN: 25.27 pg
  MEAN CORPUSCULAR HEMOGLOBIN CONCENTRATION: 39.47 G/DL
  MEAN CORPUSCULAR VOLUME: 64.03 fL
  MONOCYTE: 0.67%
  NEUTROPHIL: 7.33%
  NUCLEATED RED BLOOD CELLS: 0.33 /100WBC
  PLATELET COUNT: 1240.33 x10E3/uL
  ALANINE AMINOTRANSFERASE: 61 u/L
  ALBUMIN: 4.03 G/DL
  ALKALINE PHOSPHATASE: 438.67 u/L
  ASPARTATE AMINOTRANSFERASE: 84.33 u/L
  BLOOD UREA NITROGEN: 18.67 mg/dL
  CARBON DIOXIDE: 27.33 mmol/L
  CHLORIDE: 101.33 MEQ/L
  CHOLESTEROL: 73.33 mg/dL
  CREATINE PHOSPHOKINASE: 325 u/L
  CREATININE: 0.14 mg/dL
  GLUCOSE: 163 mg/dL
  LACTATE DEHYDROGENASE: 262.67 u/L
  LIPASE: 8.67 u/L
  PHOSPHORUS: 11.8 mg/dL
  POTASSIUM: 7.21 MEQ/L
  SODIUM: 140.77 MEQ/L
  TOTAL BILIRUBIN: 0.13 mg/dL
  TOTAL PROTEIN: 6.03 G/DL
  URIC ACID: 1.63 mg/dL
[3]
  ABSOLUTE BASOPHIL: 0 CELLS/uL
  ABSOLUTE EOSINOPHIL: 0 CELLS/uL
  ABSOLUTE LYMPHOCYTE: 11605 CELLS/uL
  ABSOLUTE MONOCYTE: 107 CELLS/uL
  ABSOLUTE SEGMENTED NEUTROPHIL: 488 CELLS/uL
  BASOPHIL: 0%
  EOSINOPHIL: 0%
  ERYTHROCYTE COUNT: 5.51 x10E6/uL
  HEMATOCRIT: 36.1%
  HEMOGLOBIN: 14.37 G/DL
  LEUKOCYTE COUNT: 12.2 x10E3/uL
  LYMPHOCYTE: 95%
  MEAN CORPUSCULAR HEMOGLOBIN: 26.1 pg
  MEAN CORPUSCULAR HEMOGLOBIN CONCENTRATION: 39.8 G/DL
  MEAN CORPUSCULAR VOLUME: 65.6 fL
  MONOCYTE: 1%
  NEUTROPHIL: 4%
  NUCLEATED RED BLOOD CELLS: 0 /100WBC
  PLATELET COUNT: 1374.33 x10E3/uL
  ALANINE AMINOTRANSFERASE: 75.67 u/L
  ALBUMIN: 4.37 G/DL
  ALKALINE PHOSPHATASE: 486 u/L
  ASPARTATE AMINOTRANSFERASE: 91 u/L
  BLOOD UREA NITROGEN: 18 mg/dL
  CARBON DIOXIDE: 29.67 mmol/L
  CHLORIDE: 98.33 MEQ/L
  CHOLESTEROL: 67.33 mg/dL
  CREATINE PHOSPHOKINASE: 326 u/L
  CREATININE: 0.19 mg/dL
  GLUCOSE: 190 mg/dL
  LACTATE DEHYDROGENASE: 114.33 u/L
  LIPASE: 10 u/L
  PHOSPHORUS: 13.03 mg/dL
  POTASSIUM: 6.8 MEQ/L
  SODIUM: 143.43 MEQ/L
  TOTAL BILIRUBIN: 0.17 mg/dL
  TOTAL PROTEIN: 6.27 G/DL
  URIC ACID: 2.17 mg/dL
[4]
  ABSOLUTE BASOPHIL: 0 CELLS/uL
  ABSOLUTE EOSINOPHIL: 0 CELLS/uL
  ABSOLUTE LYMPHOCYTE: 14283 CELLS/uL
  ABSOLUTE MONOCYTE: 137.67 CELLS/uL
  ABSOLUTE SEGMENTED NEUTROPHIL: 1112.67 CELLS/uL
  BASOPHIL: 0%
  EOSINOPHIL: 0%
  ERYTHROCYTE COUNT: 5.95 x10E6/uL
  HEMATOCRIT: 37.37%
  HEMOGLOBIN: 14.87 G/DL
  LEUKOCYTE COUNT: 15.53 x10E3/uL
  LYMPHOCYTE: 91.33%
  MEAN CORPUSCULAR HEMOGLOBIN: 25.13 pg
  MEAN CORPUSCULAR HEMOGLOBIN CONCENTRATION: 39.87 G/DL
  MEAN CORPUSCULAR VOLUME: 63.03 fL
  MONOCYTE: 1%
  NEUTROPHIL: 7.67%
  NUCLEATED RED BLOOD CELLS: 0 /100WBC
  PLATELET COUNT: 1213.67 x10E3/uL
  ALANINE AMINOTRANSFERASE: 48 u/L
  ALBUMIN: 4.33 G/DL
  ALKALINE PHOSPHATASE: 380 u/L
  ASPARTATE AMINOTRANSFERASE: 78.67 u/L
  BLOOD UREA NITROGEN: 19 mg/dL
  CARBON DIOXIDE: 29 mmol/L
  CHLORIDE: 100.67 MEQ/L
  CHOLESTEROL: 74.33 mg/dL
  CREATINE PHOSPHOKINASE: 277.67 u/L
  CREATININE: 0.24 mg/dL
  GLUCOSE: 147 mg/dL
  LACTATE DEHYDROGENASE: 321.33 u/L
  LIPASE: 9.33 u/L
  PHOSPHORUS: 10.77 mg/dL
  POTASSIUM: 6.44 MEQ/L
  SODIUM: 143.33 MEQ/L
  TOTAL BILIRUBIN: 0.2 mg/dL
  TOTAL PROTEIN: 6.2 G/DL
  URIC ACID: 1.5 mg/dL
[5]
  ABSOLUTE BASOPHIL: 50 cells/µL
  ABSOLUTE EOSINOPHIL: 43.3 cells/µL
  ABSOLUTE LYMPHOCYTE: 9670 cells/µL
  ABSOLUTE MONOCYTE: 210 cells/µL
  BASOPHIL: 0.4%
  EOSINOPHIL: 0.37%
  ERYTHROCYTE COUNT: 6.82 x10E6/uL
  HEMATOCRIT: 46.77%
  HEMOGLOBIN: 14.53 G/DL
  LEUKOCYTE COUNT: 11.77 x10E3/uL
  LYMPHOCYTE: 82.1%
  MEAN CORPUSCULAR HEMOGLOBIN: 21.33 pg
  MEAN CORPUSCULAR HEMOGLOBIN CONCENTRATION: 31.13 G/DL
  MEAN CORPUSCULAR VOLUME: 68.57 fL
  MONOCYTE: 1.8%
  NEUTROPHIL: 14.83%
  PLATELET COUNT: 1303.33 x10E3/uL
  ALANINE AMINOTRANSFERASE: 46.67 u/L
  ALBUMIN: 4.17 G/DL
  ALKALINE PHOSPHATASE: 530 u/L
  ASPARTATE AMINOTRANSFERASE: 81.33 u/L
  BLOOD UREA NITROGEN: 17.67 mg/dL
  CARBON DIOXIDE: 41.67 mmol/L
  CHLORIDE: 102 MEQ/L
  CHOLESTEROL: 70.33 mg/dL
  CREATINE PHOSPHOKINASE: 372.67 u/L
  CREATININE: 0.5 mg/dL
  GLUCOSE: 184 mg/dL
  LIPASE: 13.33 u/L
  PHOSPHORUS: 10.2 mg/dL
